In patent US9676758B2, “1-heteroaryl-indoline-4-carboxamides as modulators of GPR52 useful for the treatment or prevention of disorders related thereto” (Arena Pharmaceuticals, Inc., priority 2015, dated 2017):

How the values were obtained:
male Sprague-Dawley rats [1] = experiment: Catalepsy (vertical grid) in rats; type: in vivo, rat; conditions: Compound 13 5-100 mg/kg P.O., haloperidol 0.1, 0.3, or 1 mg/kg S.C., 45 minutes post-dose
Protocol: Catalepsy is used as a model for detecting extrapyramidal side effects of antipsychotic drugs. […] The rats were removed from home cages 45 minutes later and placed on a vertical stainless steel grid, and the latency to move both forepaws from their starting position was measured for a maximum of 30 seconds. The test was repeated three times consecutively.
Catalepsy is expressed as the average latency to move both forepaws over the three trials. Latency increased in the rats administered haloperidol (see FIG. 27B), but was unchanged in rats administered Compound 13 (see FIG. 27A).

[2] = Brain penetration (plasma and brain exposure); type: in vivo, mouse; conditions: PO dose 3 mg/kg; male C57BL6 mice; 60 minute time point
Protocol: Plasma and brain exposure were evaluated to determine the brain penetration of compounds described herein. Male C57BL6 mice were administered a single per oral (PO) dose of compound at 3 or 10 mg/kg (as a free base) formulated in 20% HPCD in 0.9% NaCl. Blood and brain samples were collected 60 minutes post-dose (n=3-6 animals). Blood was collected via cardiac puncture and stored on ice prior to the separation of plasma by centrifugation. Brains were extracted from the cranium and frozen on dry ice. Tissue samples were stored at approximately −80° C. prior to bioanalytical analysis.
Analyte plasma and brain concentrations were determined by LC/MS/MS.

male Sprague-Dawley rats [3] = experiment: Rat basal locomotor activity; conditions: 0.5, 1, 2, 5, 10, and 20 mg/kg P.O.
Protocol: Locomotor activity was assessed in a photocell monitoring caging system (Kinder Scientific MotorMonitor System, Kinder Scientific, Poway, Calif.). Each cage consisted of a standard plastic rodent cage (24×45.5 cm) placed inside a stainless steel frame. Infrared photocell beams were located across the long axis of the frame. Interruption of a photocell beam due to movement of the animal in front of a beam was recorded and used as a measure of ambulatory activity. Photocell beam interruptions were automatically recorded by a computer system. Perforated cage tops were placed on top of the test enclosures during testing.
Activity was then measured for the following 30 minutes. Animals were naïve to the testing apparatus prior to performing the test. Activity is expressed as the total number of ambulations over the 30 minutes of locomotor testing (i.e., 30-60 minutes post-injection).

male C57/BL6 mice = experiment: Mouse basal locomotor activity; type: in vivo; conditions: po
Protocol: To measure basal locomotor activity, male C57/BL6 mice (8-16 weeks) (Jackson Laboratories, Sacramento, Calif.) were transferred in home cages to the testing room approximately 60 minutes prior to testing. Approximately 15 minutes after arrival in the testing room, a dark cycle commenced, with lights turning off and infrared lights turning on for experimenter visibility. Thirty minutes after the lights were turned off, animals were individually weighed and administered either vehicle (20% hydroxypropyl-β-cyclodextrin) Compound 13 (1, 2, 5, 10, or 20 mg/kg P.O.), or another GPR52 agonist (10 mg/kg P.O.) and returned to home cages. Fifteen minutes later, mice were placed into locomotor cages and activity was recorded for 60 minutes.

male Sprague-Dawley rats [4] = experiment: Prepulse inhibition of the startle response in rats; type: in vivo, rat; conditions: 5 or 20 mg/kg P.O., FIGS. 26A-B
Protocol: (§1) Prepulse inhibition testing was conducted in enclosed startle chambers (Kinder Scientific StartleMonitor System, Kinder Scientific, Poway, Calif.) in which animals were placed into restrainers secured onto startle-sensing plates. A constant background white noise of 65 dB was audible in the chambers throughout testing. […]
(§2) For each animal, mean startle amplitude for each trial type during the 35-trial block was calculated, and percent prepulse inhibition (% PPI) for each prepulse intensity was calculated as the percent decrease in the mean startle amplitude in response to a given prepulse and 120 dB startle stimulus relative to the mean startle amplitude in response to the 120 dB startle stimulus alone. The % PPI was then calculated for each animal as the mean % PPI across all four prepulse intensities. […]

male 129Sv/Ev mice = experiment: Prepulse inhibition of the startle response in mice; type: in vivo, mouse; conditions: mice with relatively low PPI; Compound 13 10 mg/kg P.O.; FIG. 25A
Protocol: as §1, §2

## O=C(NCCO)c1cccc2c1CCN2c1cc(Cc2cccc(C(F)(F)F)c2)ccn1 [Compound 13, N-(2-Hydroxyethyl)-1-(4-(3-(trifluoromethyl)benzyl)pyridin-2-yl)indoline-4-carboxamide]
Male Sprague-Dawley rats [1]
  catalepsy: average latency to move both forepaws: unchanged
[2]
  Brain/Plasma Ratio: 3.51
Male Sprague-Dawley rats [3]
  basal locomotor activity: significant reduction in basal locomotor activity was only seen at the highest dose
Male C57/BL6 mice; 10 mg/kg P.O.
  inhibition at 10 mg/kg: 70%
Male C57/BL6 mice; 1 h, P.O., activity recorded for 60 minutes, read-out: ED50 (% Inhibition in Mouse Basal Locomotor Activity)
  ED50: 2.7 mg/kg
Male Sprague-Dawley rats [4]; MK-801 0.3 mg/kg SC
  MK-801-induced disruption in % PPI in 'good performers': reversed
Male Sprague-Dawley rats [4]; amphetamine 0.5 mg/kg SC
  amphetamine-induced disruption in % PPI in 'good performers': reversed
Male 129Sv/Ev mice
  basal % PPI in 'poor performers': increased
